One molecule from patent US20030104079A1, “Skin tissue regeneration promoters comprising ginsenoside Rb1” (Japan Science and Technology Corporation, Japan, priority 2000, published 2003) can be followed below.

Where only a bound is given, the exact number is not on record here.

The test system of this assay is morsus of human oral mucosa. Nature of the assay: Therapy of morsus of human oral mucosa by external application. The class given is in vivo. To be noted: propet containing 0.00001% by weight. The text has this: Next, one of the present inventors had confirmed by themself whether or not propet containing low concentration of ginsenoside Rb1 was effective to morsus of mouth or oral mucosa. On May 2nd, 2000, at about 2:00 p.m. after dental treatment, […] had started to have late lunch before waking up from infiltration anesthesia of the left third branch of the trigeminal nerve and periodontal anesthesia due to heavy hunger. They had bitten themself three times their own left lip mucosa and since they felt iron taste (blood) in their oral cavity, as a result of confirmation of their morsus by a mirror, they found at least five regions of erosion or defect of mouth or oral mucosa, further hematocele or hematoma was found at one spot. Since they concluded that if it (i.e. morsus of oral mucosa) was allowed to leave as it is, aphthous stomatitis would be complicated within several days to require a week to ten days for complete cure, propet containing a low concentration (0.00001% by weight) of ginsenoside Rb1, which had been confirmed to show effectiveness and efficacy by animal experiments of the present inventors, was applied with small amount to the five regions with erosion or defect of oral mucosa and one hematocele or hematoma region. External or topical application was performed before and after meal and before and after eating between meals. The external or topical application was performed after tooth brushing was performed as much as possible after the meal. Namely, propet containing 0.00001% by weight of ginsenoside Rb1 was applied externally or topically onto morsus regions of the labial mucosa separately 6-10 times a day. FIG. 7 is a photograph in place of drawing.
Next, one of inventors of the present invention (Sakanaka) had bitten again left lower labial mucosa on May 26, 2000 during lunch, and propet containing 0.00001% by weight of ginsenoside Rb1 was applied topically or externally onto the morsus region. A photograph just after morsus is shown in left of FIG. 8, and a photograph at 72 hours after morsus is shown in right of FIG. 8.
Next, one of the present inventors had confirmed by themself whether propet containing low concentrations of ginsenoside Rb1 was effective for morsus of mouth mucosa or not. On May 2nd, 2000, at about 2:00 p.m. after dental treatment, […] had started to have late lunch before awakening from infiltration anesthesia of the left third division of the trigeminal nerve and periodontal anesthesia due to heavy hunger. They had bitten themself three times their own left lip mucosa and they felt iron taste (blood) in their oral cavity. As a result of confirmation of their morsus by a mirror, they found at least five regions of erosion or defect of mouth mucosa, further hematoma was found at one spot. Since they concluded that if the morsus was allowed to leave as it was, aphthous stomatitis would be developed as a complication to require a week to ten days for complete cure, a small amount of propet containing a low concentration (0.00001% by weight) of ginsenoside Rb1, which had been confirmed to show effectiveness and efficacy by animal experiments of the present inventors, was topically or externally applied to the five regions with erosion or defect of oral mucosa and to one hematoma region. External or topical application was performed before and after meal and before and after eating between meals. […]

For the molecule `CC(C)=CCC[C@](C)(O[C@@H]1O[C@H](CO[C@@H]2O[C@H](CO)[C@@H](O)[C@H](O)[C@H]2O)[C@@H](O)[C@H](O)[C@H]1O)[C@H]1CC[C@]2(C)[C@@H]1[C@H](O)C[C@@H]1[C@@]3(C)CC[C@H](O[C@@H]4O[C@H](CO)[C@@H](O)[C@H](O)[C@H]4O[C@@H]4O[C@H](CO)[C@@H](O)[C@H](O)[C@H]4O)C(C)(C)[C@@H]3CC[C@]12C` [ginsenoside Rb1], the “pain in the wounded regions” value is “markedly reduced”. Besides, the “epithelization of morsus regions of labial mucosa (FIG. 7)” value (6-10 times a day, 96 hours after morsus, one person) is given as “almost complete epithelization”. Further, the “complication of aphthous stomatitis after morsus” value (first case) is listed as “no complication of aphthous stomatitis was observed”. For the setting “second case, 72 hours after morsus”, the “cure of morsus (FIG. 8)” value is reported as “rapidly cured without developing aphthous stomatitis as a complication”. Besides, the “time in which morsus (wound) healing is markedly promoted” value (such morsus usually requires at least 7 to 10 days) is not above 96 h.
